# Results as given in patent US20200263213A1, “METHODS FOR INCREASING THE TOLERANCE OF MICROBIAL CELLS TOWARDS ANTHRANILIC ACID BY LIMITING THE AMOUNT OF AMMONIA IN THE CULTURE MEDIUM” (priority 2017, published 2020).
# Key:
# [1] = tested on: C. glutomicum strain derived from ATCC 13032 by evolutionary engineering; test: Metabolic activity after NH4-oAB and Na-oAB addition, batch cultivation in 1 L bioreactors (Example 2); type: cell-based, Corynebacterium glutomicum; conditions: 40 mL of 500 g/L oAB stock solution added at 7 h and 24 h; FIG. 2
# Experimental: Both bioreactors: addition of 36 g/L glucose (added as stock solution) after 7.5 h and 24.5 h to prevent a glucose limitation.
# A C. glutomicum strain derived from ATCC 13032 was used to compare the metabolic activity after NH4-oAB and Na-oAB addition during the cultivation. This strain was derived from Corynebacterium glutomicum ATCC 13032 by evolutionary engineering in order to increase its resistance against oAB. It was not further genetically modified. Thus it was not capable of oAB-production.
# [2] = tested on: C. glutomicum ATCC 13032; test: Metabolic activity after NH4-oAB and Na-oAB addition, batch cultivation in 1 L bioreactors (Example 3, FIG. 3); type: cell-based; conditions: for biomass accumulation after addition: 40 mL of 500 g/L oAB stock solution added after 6.4 h and 23.6 h, FIG. 3
# From the text: From this it follows that the toxicity of oAB on C. glutomicum ATCC 13032 in presence of high sodium concentrations is reduced as compared to the toxicity in presence of high ammonium concentrations.
# [3] = tested on: modified C. glutamicum production strain; conditions: for decrease of OTR signal after addition: 292 mmol salt (70 mL stock solution) added after 64 h, Na-oAB added before (4 x 20 mL of 500 g/L); for final dry weight concentration: after a cultivation time of 91 hours, salt added after 64 h in the presence of oAB
# [4] = tested on: modified C. glutaomicum production strain; test: Evaluation of the maximum tolerable oAB concentration, batch cultivation in 1 L bioreactor (Example 1); type: cell-based, Corynebacterium glutaomicum
# Experimental: FIG. 1: Evaluation of the maximum tolerable oAB concentration during batch cultivation in a 1 L lab-scale bioreactor with a modified C. glutaomicum production strain.
# The maximum tolerable oAB concentration in the presence of sodium ions in the medium was tested with a modified C. glutaomicum production strain. This strain was derived from Corynebacterium glutaomicum ATCC 13032 by evolutionary engineering in order to increase its resistance against oAB. This strain was then genetically modified to make it capable of oAB-production and comprised the following modifications. The incorporated modifications have the effect of reduced expression of the trpD gene, encoding anthranilate phosphoribosyl transferase, knock out of gene ppc, encoding PEP Carboxylase, constitutive overexpression of heterologous aroG^D146N and trpEG^540F genes from E. coli, encoding feedback resistant DAHP synthase and anthranilate synthase, respectively, constitutive overexpression of the gene aroL from E. coli, encoding shikimate kinase.
# Glucose was added as stock solution after 40 h, 48 h, 63 h, 65 and 71.5 h to prevent a glucose limitation.
Compound,OTR signal after addition [1],biomass concentration after addition [1],biomass accumulation after addition [2],decrease of OTR signal after addition [3],final dry weight concentration [3] [g/L],other results
N.Nc1ccccc1C(=O)O [NH4-oAB],constant OTR signal,reduced biomass accumulation,growth inhibition after 24 h,–,–,"o-aminobenzoate concentration at which cell growth (dry weight) stops ([2]; according to FIG. 3): > 50 g/L; o-aminobenzoate concentration at which the metabolic activity of bacterial cells (OTR) is limited ([2]; according to FIG. 3, concentration not including the mass of the cation): more than 25 g/L"
Cl.N [NH4Cl],–,–,–,about 20%,6.8,–
Nc1ccccc1C(=O)[O-].[Na+] [Na-oAB],continued to increase,continued to increase,biomass accumulation continued,–,–,–
"Nc1ccccc1C(=O)O [oAB, 2-aminobenzoic acid]",–,–,–,–,–,"oAB concentration at which an increase in biomass concentration was still observed ([4]; oAB added stepwise as sodium salt (dissolved with NaOH at pH 7), pH 7 controlled with NH4OH, 30° C.): 80 g/L; oAB concentration resulting in a decrease of the metabolic activity (declining OTR signal) and no further increase in biomass ([4]; oAB increased from 80 g/L after 71 h, added as sodium salt (dissolved with NaOH at pH 7)): 100 g/L"
[Cl-].[Na+] [NaCl],–,–,–,no effect,7.8,–
